Columns and labels:
Assay in all cases: relative viability (nuclei count vs DMSO), 5 days (fraction); higher = more cells survive
Neratinib + Bortezomib = compound: CCOc1cc2ncc(C#N)c(Nc3ccc(OCc4ccccn4)c(Cl)c3)c2cc1NC(=O)/C=C/CN(C)C [Neratinib] + CC(C)C[C@H](NC(=O)[C@H](Cc1ccccc1)NC(=O)c1cnccn1)B(O)O [Bortezomib] (partner 0.002 µM)
How it was run: (§1)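 After 5 days of treatment, lung cancer cells in 1536-well plates were fixed and stained in a single step (final 0.05% Triton X-100, 1% formaldehyde, 1 ug/ml Hoechst) and their nuclei counted on 4× images. Treatment had been applied by pin tool the day after seeding as one drug alone or as a fixed anchor-drug dose with five library-drug doses (not always all listed) in √10 steps. Relative viability is the nuclei count of treated wells divided by that of vehicle wells, and values are medians of duplicate plates.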

Neratinib + Tozasertib = compound: CCOc1cc2ncc(C#N)c(Nc3ccc(OCc4ccccn4)c(Cl)c3)c2cc1NC(=O)/C=C/CN(C)C [Neratinib] + Cc1cc(Nc2cc(N3CCN(C)CC3)nc(Sc3ccc(NC(=O)C4CC4)cc3)n2)n[nH]1 [Tozasertib] (partner 0.1 µM)
How it was run: as §1

Neratinib + AZD7762 = compound: CCOc1cc2ncc(C#N)c(Nc3ccc(OCc4ccccn4)c(Cl)c3)c2cc1NC(=O)/C=C/CN(C)C [Neratinib] + NC(=O)Nc1cc(-c2cccc(F)c2)sc1C(=O)N[C@H]1CCCNC1 [AZD7762] (partner 0.2 µM)
How it was run: as §1

Neratinib + Decitabine = compound: CCOc1cc2ncc(C#N)c(Nc3ccc(OCc4ccccn4)c(Cl)c3)c2cc1NC(=O)/C=C/CN(C)C [Neratinib] + Nc1ncn([C@H]2C[C@H](O)[C@@H](CO)O2)c(=O)n1 [Decitabine] (partner 2 µM)
How it was run: as §1

Cell Line	relative viability (Neratinib + Bortezomib; first compound 0.01 µM)	relative viability (Neratinib + Bortezomib; first compound 0.03162 µM)	relative viability (Neratinib + Bortezomib; first compound 0.1 µM)	relative viability (Neratinib + Bortezomib; first compound 0.3162 µM)	relative viability (Neratinib + Bortezomib; first compound 1 µM)	relative viability (Neratinib + Tozasertib; first compound 0.01 µM)	relative viability (Neratinib + Tozasertib; first compound 0.03162 µM)	relative viability (Neratinib + Tozasertib; first compound 0.3162 µM)	relative viability (Neratinib + Tozasertib; first compound 1 µM)	relative viability (Neratinib + AZD7762; first compound 0.01 µM)	relative viability (Neratinib + AZD7762; first compound 0.03162 µM)	relative viability (Neratinib + AZD7762; first compound 0.1 µM)	relative viability (Neratinib + AZD7762; first compound 0.3162 µM)	relative viability (Neratinib + AZD7762; first compound 1 µM)	relative viability (Neratinib + Decitabine; first compound 0.01 µM)	relative viability (Neratinib + Decitabine; first compound 0.03162 µM)	relative viability (Neratinib + Decitabine; first compound 0.3162 µM)	relative viability (Neratinib + Decitabine; first compound 1 µM)	relative viability (Neratinib + Tozasertib; first compound 0.1 µM)	relative viability (Neratinib + Decitabine; first compound 0.1 µM)
NCI-H2347	1.01	1.12	0.808	0.721	1.11	0.539	0.624	0.541	0.384	0.727	0.733	0.533	0.756	0.457	0.679	0.606	0.545	0.633		
LC-2-ad	1	1.07	0.866	1	0.963	0.448	0.424	0.388	0.277	0.832	0.894		0.551	0.327	0.931	0.815	0.7		0.455	0.72
HCC-15	0.948	1.16	0.932	0.956	0.882	0.673	0.453	0.341	0.174	1.46	1.23	1.18	1.09	1.24	0.684	0.703	0.662	0.597	0.39	0.646
NCI-H3122	1.05	1.1	0.98	1.06	0.775	0.437	0.422	0.375	0.135	1.05	1	0.88	1.01	0.438	0.365	0.544	0.457	0.364	0.388	0.488
LXF-289	1.02	0.998	0.93	1.03	0.975	0.22	0.233	0.174	0.186	1.09	1.12	1.04	1.21		0.382	0.396	0.349	0.421	0.183	0.39
NCI-H1755	1.08	0.934		1.04	0.958	0.619	0.617	0.515	0.543	0.492	0.53	0.356	0.65	0.407	0.728	0.715	0.805	0.858	0.613	0.718
NCI-H1437	0.639		0.565	0.385	0.475	0.43	0.439	0.38	0.328	1.18	1.12	1.05	1.08	0.896	0.539	0.521	0.58	0.661	0.296	0.582
NCI-H2087	0.775	0.867		0.782	0.857	0.239	0.274	0.193	0.134	1.36	1.29	0.985	1.24	0.694	0.272	0.333	0.254	0.215	0.197	0.239

From the supplement of paper PMC10307832
